Data published in article PMC4304843, “Human Mitochondrial Hsp70 (Mortalin): Shedding Light on ATPase Activity, Interaction with Adenosine Nucleotides, Solution Structure and Domain Organization” (PLoS ONE, 2015).

Assays:
[1] = biological target: T1, human mortalin (mtHsp70, GRP75, HspA9, PBP74) (Homo sapiens, UniProt P38646); assay: isothermal titration calorimetry; assay type: binding
T1 construct: monomeric SEC fraction, alkaline phosphatase treated

[2] = biological target: T2, human Hsp70-1A (Homo sapiens, UniProt P0DMV8); assay: ATPase, EnzChek phosphate assay, Michaelis-Menten fit; assay type: biochemical; settings: TKP buffer without phosphate pH 7.5, 2 mM Mg2+, 37°C, no co-chaperone
T2 construct: gene HSPA1A; recombinant, expressed in E. coli BL21(DE3) as previously described
T2 sequence (P0DMV8 2-641): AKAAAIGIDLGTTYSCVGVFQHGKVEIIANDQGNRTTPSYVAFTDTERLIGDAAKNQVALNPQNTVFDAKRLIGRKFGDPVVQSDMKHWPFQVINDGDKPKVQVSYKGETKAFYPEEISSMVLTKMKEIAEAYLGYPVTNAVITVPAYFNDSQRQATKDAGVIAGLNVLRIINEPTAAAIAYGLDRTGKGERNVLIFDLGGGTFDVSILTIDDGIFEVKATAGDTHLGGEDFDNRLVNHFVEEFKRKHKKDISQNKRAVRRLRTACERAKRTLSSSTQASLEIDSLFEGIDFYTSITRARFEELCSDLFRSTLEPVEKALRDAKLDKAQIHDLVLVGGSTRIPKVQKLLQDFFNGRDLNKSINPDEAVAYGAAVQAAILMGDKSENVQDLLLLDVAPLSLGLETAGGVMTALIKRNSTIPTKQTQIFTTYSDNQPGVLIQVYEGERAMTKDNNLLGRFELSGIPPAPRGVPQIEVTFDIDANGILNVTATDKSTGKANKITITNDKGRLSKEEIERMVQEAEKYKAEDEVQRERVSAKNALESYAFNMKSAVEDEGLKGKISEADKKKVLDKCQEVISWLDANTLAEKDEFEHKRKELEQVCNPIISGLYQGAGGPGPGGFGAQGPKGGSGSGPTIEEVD
Text: ATPase, EnzChek phosphate assay, Michaelis-Menten fit on human Hsp70-1A

T1 sequence (P38646 47-679): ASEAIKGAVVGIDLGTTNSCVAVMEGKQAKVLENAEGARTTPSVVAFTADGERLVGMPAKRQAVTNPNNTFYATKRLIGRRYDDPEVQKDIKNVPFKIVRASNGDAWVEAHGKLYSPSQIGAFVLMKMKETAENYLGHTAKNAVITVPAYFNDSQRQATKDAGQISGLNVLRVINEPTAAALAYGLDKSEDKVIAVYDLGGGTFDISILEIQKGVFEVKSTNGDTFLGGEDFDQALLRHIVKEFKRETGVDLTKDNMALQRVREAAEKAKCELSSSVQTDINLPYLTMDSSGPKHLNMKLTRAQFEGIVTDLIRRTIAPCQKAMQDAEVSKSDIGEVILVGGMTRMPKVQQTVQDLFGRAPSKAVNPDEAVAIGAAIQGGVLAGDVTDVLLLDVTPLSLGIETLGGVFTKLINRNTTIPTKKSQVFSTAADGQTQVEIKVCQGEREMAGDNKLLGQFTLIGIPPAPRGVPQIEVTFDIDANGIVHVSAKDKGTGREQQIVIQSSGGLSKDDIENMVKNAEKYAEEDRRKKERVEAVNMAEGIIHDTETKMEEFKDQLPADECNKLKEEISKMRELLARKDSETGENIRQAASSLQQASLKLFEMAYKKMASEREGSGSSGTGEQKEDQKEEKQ

Km [2] | Compound | Kd [1]
270 ± 40 µM | Nc1ncnc2c1ncn2[C@@H]1O[C@H](COP(=O)(O)OP(=O)(O)OP(=O)(O)O)[C@@H](O)[C@H]1O [ATP] | 1100 ± 100 nM
 | Nc1ncnc2c1ncn2[C@@H]1O[C@H](COP(=O)(O)OP(=O)(O)O)[C@@H](O)[C@H]1O [ADP] | 2200 ± 100 nM
